The subject of test [1] is Thoracic aortic rings. Briefly: Thoracic aortic rings assay. The arrangement: species or system rat. To be noted: relaxation of rat thoracic aortic rings contracted with 100 ng/mL phenylephrine; read-out: Aortic Ring EC50. The protocol:
Thoracic aortic rings were dissected from anesthetized (isoflurane) male Sprague-Dawley rats weighing 275-299 g. Tissues were immediately transferred to ice-cold Krebs-Henseleit solution, which had been aerated with 95% O2 and 5% CO2 for 30 minutes. Following removal of connective tissue, aortic sections were cut into 4 rings (˜2 mm each) and suspended on 2 L-shaped hooks, with one hook fixed at the bottom of the tissue bath (Schuler Organ Bath, Harvard Apparatus) and the other connected to a force transducer (F30 Force Transducer, Harvard Apparatus). Baths contained Krebs Henseleit solution (10 mL) heated to 37° C. and aerated with 95% O2 and 5% CO2. Rings were brought to an initial tension of 0.3-0.5 g and gradually raised to a resting tension of 1.0 g over 60 minutes. Rings were rinsed with Krebs Henseleit solution (heated to 37° C. and aerated with 95% 02 and 5% CO2) at 15 minute intervals until a stable baseline was obtained. Rings were considered to be stable after a resting tension of 1.0 g was maintained (for approximately 10 minutes) without need for adjustment. Rings were then contracted with 100 ng/mL phenylephrine by adding 100 μL of a 10 μg/mL phenylephrine stock solution. Tissues achieving a stable contraction were then treated in a cumulative, dose dependent manner with test compounds prepared in dimethylsulfoxide (DMSO). In some cases, tissues were rinsed three times over a 5 minute period with Krebs-Heinseleit's solution (heated to 37° C. and aerated with 95% 02 and 5% CO2), allowed to stabilize at baseline, and then used for characterization of other test articles or DMSO effects. All data were collected using the HSE-ACAD software provided by Harvard Apparatus. Percent relaxation effects were calculated in Microsoft Excel using the recorded tension value of 100 ng/mL phenylephrine treatment as 0% inhibition and, after washing the tissue with buffer, the original resting tension of tissue is used as 100% inhibition. EC50 values were calculated from concentration-response curves generated with GraphPad Prism Software.
The biological data for some of the compounds of Formula IA and Formula IB, in comparison with the prior art compound, BAY 41-2272, as the reference compound, determined by the thoracic aorta ring assay are presented in Table 6 below.

Test [2] concerns the target T1, soluble guanylate cyclase (sGC) (Homo sapiens, UniProt Q02108+Q02153).
T1 construct: endogenously expressing soluble guanylate cyclase (sGC); endogenous in cells; host or cells: HEK293
T1 sequence (Q02153 1-619): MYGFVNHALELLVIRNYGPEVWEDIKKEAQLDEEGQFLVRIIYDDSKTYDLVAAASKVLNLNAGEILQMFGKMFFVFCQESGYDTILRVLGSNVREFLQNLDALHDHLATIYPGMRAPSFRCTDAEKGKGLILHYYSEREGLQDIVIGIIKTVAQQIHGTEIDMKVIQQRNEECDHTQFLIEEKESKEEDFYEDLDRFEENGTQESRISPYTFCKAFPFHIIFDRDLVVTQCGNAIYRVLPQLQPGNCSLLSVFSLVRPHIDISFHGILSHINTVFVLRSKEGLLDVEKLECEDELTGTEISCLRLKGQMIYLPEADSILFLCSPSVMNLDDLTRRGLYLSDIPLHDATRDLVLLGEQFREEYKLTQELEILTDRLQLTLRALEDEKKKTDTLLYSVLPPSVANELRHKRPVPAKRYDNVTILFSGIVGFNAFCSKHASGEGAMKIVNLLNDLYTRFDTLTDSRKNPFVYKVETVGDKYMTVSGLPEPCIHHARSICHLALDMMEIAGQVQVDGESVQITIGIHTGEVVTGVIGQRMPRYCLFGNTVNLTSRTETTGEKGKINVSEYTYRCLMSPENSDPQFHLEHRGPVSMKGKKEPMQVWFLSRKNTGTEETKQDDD
T1 sequence (Q02108 1-690): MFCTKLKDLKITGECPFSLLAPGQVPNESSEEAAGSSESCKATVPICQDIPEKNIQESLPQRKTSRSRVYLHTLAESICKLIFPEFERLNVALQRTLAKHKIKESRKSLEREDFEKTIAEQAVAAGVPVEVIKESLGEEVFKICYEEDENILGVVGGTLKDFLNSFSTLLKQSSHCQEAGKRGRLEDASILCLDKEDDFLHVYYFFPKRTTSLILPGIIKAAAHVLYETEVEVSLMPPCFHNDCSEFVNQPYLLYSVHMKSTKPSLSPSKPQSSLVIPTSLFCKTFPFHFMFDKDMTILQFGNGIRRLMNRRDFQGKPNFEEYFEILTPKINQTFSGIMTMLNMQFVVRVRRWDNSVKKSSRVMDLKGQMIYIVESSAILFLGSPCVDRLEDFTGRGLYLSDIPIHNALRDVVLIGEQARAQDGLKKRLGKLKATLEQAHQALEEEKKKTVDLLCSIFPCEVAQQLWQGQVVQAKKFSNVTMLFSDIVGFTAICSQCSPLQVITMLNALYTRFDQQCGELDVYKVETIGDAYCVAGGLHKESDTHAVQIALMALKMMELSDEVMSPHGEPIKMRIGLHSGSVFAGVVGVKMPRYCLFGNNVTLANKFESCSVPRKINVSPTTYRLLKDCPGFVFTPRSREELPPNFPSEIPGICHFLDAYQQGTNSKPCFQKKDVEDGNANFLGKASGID
The test is described as follows: sGC-HEK-cGMP assay. As to conditions: HEK293 cells, 10 μM SNP, percentage of sGC activity obtained with positive control BAY 41-2272 (= 100%); for Emax at 10 µM: compound at 10 μM; for Emax at 30 µM: compound at 30 μM. The class given is cell-based. A digest of the protocol:
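HEK293 cells endogenously expressing sGC, preincubated 15 min at 37 °C with 0.5 mM IBMX, then exposed to compound plus 10 μM sodium nitroprusside for 10 min at 37 °C. Reaction stopped and cells lysed with 0.1 M HCl; cGMP quantified by LC/MS against a standard curve; EC50 from concentration-response curves.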

Test [3] has as its target T2, Human soluble guanylate cyclase enzyme (hsGC) (Homo sapiens, UniProt Q02108+Q02153).
T2 construct: purchased Enzo Inc. ALX-201-177
T2 sequence (Q02153 1-619): T1 sequence (Q02153 1-619)
T2 sequence (Q02108 1-690): T1 sequence (Q02108 1-690)
The test is described as follows: Purified human sGC enzyme activity assay (with or without SNP). The class given is biochemical. As to conditions: 30 μM compound; for sGC Enzyme Activity Increase at 30 μM with SNP: 1 μM SNP, specific activity vs DMSO and SNP; for sGC Enzyme Activity Increase at 30 μM without SNP: specific activity vs DMSO control. The method, boiled down: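 Purified human sGC (5 ng) incubated 30 min at 37° C with compound at 10 or 30 μM, 300 μM GTP, 2 mM MgCl2 and 1 mM IBMX at pH 8.0, with or without 1 μM SNP. cGMP formed was quantified against a standard curve. Results are given as fold-change in specific activity over DMSO (or DMSO+SNP) control.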

Molecules are shown by their SMILES. A value given as a limit tells only on which side of the number the result lay.

What is called EC50 is the concentration needed to bring the measured effect to its halfway point. Regarding `Nc1nc(-c2nn(Cc3ccccc3F)c3ncccc23)ncc1C1CC1` [BAY-41-2272, reference compound], in test [1], the EC50 is below 1000 nM.

A word on the Emax: it is the greatest response seen or fitted, relative to the assay's reference. In test [2], `Nc1cccc(-c2nc(-c3nccs3)n(Cc3ccccc3F)n2)n1` [Compound I-14, 6-(1-(2-fluorobenzyl)-5-(thiazol-2-yl)-1H-1,2,4-triazol-3-yl)pyridin-2-amine] showed an Emax at 10 µM of 5 to 10% and an Emax at 30 µM of 10 to 20%. Besides, in test [3], the “sGC Enzyme Activity Increase at 30 μM with SNP” value is reported as “C (C = 2 to <5 fold increase)” and the “sGC Enzyme Activity Increase at 30 μM without SNP” value was “B (B = 1 to <2 fold increase)”.

As to `Fc1ccccc1Cn1nc(-c2cscn2)nc1-c1ncccn1` [Compound I-20], in test [2], the Emax at 10 µM was 0 to 5% and the Emax at 30 µM fell in the range of 0 to 5%. In test [3], the “sGC Enzyme Activity Increase at 30 μM with SNP” value is on record as “B (B = 1 to <2 fold increase)” and the “sGC Enzyme Activity Increase at 30 μM without SNP” value is “B (B = 1 to <2 fold increase)”.

For the compound `Fc1ccccc1Cn1nc(-c2nccs2)nc1-c1ncccn1` [Compound I-29], in test [2], the Emax at 10 µM lay in the range of 0 to 5% and the Emax at 30 µM lay in the range of 0 to 5%. In test [3], the “sGC Enzyme Activity Increase at 30 μM with SNP” value is “C (C = 2 to <5 fold increase)” and the “sGC Enzyme Activity Increase at 30 μM without SNP” value is given as “B (B = 1 to <2 fold increase)”.

In test [2], `Fc1ccccc1Cn1nc(-c2ccccn2)nc1C1CC1` [Compound I-21] showed an Emax at 10 µM of 0 to 5% and a maximal response (Emax) at 30 µM of 0 to 5%. For the same compound, in test [3], the “sGC Enzyme Activity Increase at 30 μM with SNP” value was “B (B = 1 to <2 fold increase)” and the “sGC Enzyme Activity Increase at 30 μM without SNP” value is “B (B = 1 to <2 fold increase)”.

The values above are taken from US9061030B2, “sGC stimulators” (IRONWOOD PHARMACEUTICALS, INC., priority 2010, dated 2015).
